In patent US20180370927A1, “MICROBIOCIDAL OXADIAZOLE DERIVATIVES” (SYNGENTA PARTICIPATIONS AG, priority 2015, published 2018):

Legend:
[1] = test system: Glomerella lacenarium (Colletotrichum lacenarium); assay: Glomerella lacenarium (Colletotrichum lacenarium) liquid culture / cucumber / preventative (anthracnose); assay type: cell-based; details: 20 ppm in the applied formulation, liquid culture in PDB, 24° C., 3 to 4 days after application, read-out: disease control (inhibition of growth, photometric) compared to untreated control
Summary of the method: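 At 20 ppm in the applied formulation, compounds were mixed with fungal spores in potato dextrose broth and held at 24° C. After 3–4 days, photometric growth measurement gave percent antifungal activity relative to untreated control.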

Phakopsora pachyrhizi = Phakopsora pachyrhizi / soybean / leaf disc preventative (Asian soybean rust); assay type: in vivo; details: foliar, 200 ppm in the applied formulation, soybean leaf disks, assessed 12 to 14 days after application, read-out: disease control compared to untreated control leaf disks
Experimental: (§1) Leaf disks or leaf segments of various plant species are cut from plants grown in a greenhouse. The cut leaf disks or segments are placed in multiwell plates (24-well format) onto water agar. The leaf disks are sprayed with a test solution before (preventative) or after (curative) inoculation. Compounds to be tested are prepared as DMSO solutions (max. 10 mg/mL) which are diluted to the appropriate concentration with 0.025% Tween20 just before spraying. The inoculated leaf disks or segments are incubated under defined conditions (temperature, relative humidity, light, etc.) according to the respective test system. A single evaluation of disease level is carried out 3 to 14 days after inoculation, depending on the pathosystem. Percent disease control relative to the untreated check leaf disks or segments is then calculated.
Example 3: Fungicidal Activity Against Phakopsora pachyrhizi/Soybean/Leaf Disc Preventative (Asian Soybean Rust)
Soybean leaf disks are placed on water agar in multiwell plates (24-well format) and sprayed with the formulated test compound diluted in water. One day after application leaf discs are inoculated by spraying a spore suspension on the lower leaf surface. After an incubation period in a climate cabinet of 24-36 hours in darkness at 20° C. and 75% relative humidity leaf disc are kept at 20° C. with 12 hours light/day and 75% relative humidity. The activity of a compound is assessed as percent disease control compared to untreated when an appropriate level of disease damage appears in untreated check leaf disks (12 to 14 days after application).
(§2) The following compounds at 200 ppm in the applied formulation give at least 80% disease control in this test when compared to untreated control leaf disks under the same conditions, which show extensive disease development.

[2] = test system: Puccinia recondita f. Sp. Tritici; assay: Puccinia recondita f. sp. tritici / wheat / leaf disc preventative (brown rust); assay type: in vivo; details: foliar, 200 ppm in the applied formulation, wheat leaf segments, preventative, assessed 7 to 9 days after application, read-out: disease control compared to untreated control leaf disks
Summary of the method: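 Wheat cv. Kanzler leaf segments on agar sprayed with formulated compound in water, inoculated with rust spores 1 day later. Incubated at 19° C, 75% rh, 12 h light/12 h dark; percent disease control versus untreated scored 7 to 9 days after application; tested at 200 ppm.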

[3] = test system: Puccinia recondita f. Sp. Tritici; assay: Puccinia recondita f. sp. tritici / wheat / leaf disc curative (brown rust); assay type: in vivo; details: foliar, 200 ppm in the applied formulation, wheat leaf segments, curative (applied 1 day after inoculation), assessed 6 to 8 days after application, read-out: disease control compared to untreated control leaf disks
Experimental: as §1
Example 2: Fungicidal Activity Against Puccinia recondita f. Sp. Tritici/Wheat/Leaf Disc Curative (Brown Rust)
Wheat leaf segments cv. Kanzler are placed on agar in multiwell plates (24-well format). The leaf segments are then inoculated with a spore suspension of the fungus. Plates were stored in darkness at 19° C. and 75% relative humidity. The formulated test compound diluted in water was applied 1 day after inoculation. The leaf segments were incubated at 19° C. and 75% relative humidity under a light regime of 12 hours light/12 hours darkness in a climate cabinet and the activity of a compound was assessed as percent disease control compared to untreated when an appropriate level of disease damage appears in untreated check leaf segments (6 to 8 days after application).
as §2

| SMILES | inhibition at 20 ppm [1] [%] | pest or weed control at 200 ppm (Phakopsora pachyrhizi) [%] | pest or weed control at 200 ppm [2] [%] | pest or weed control at 200 ppm [3] [%] |
| --- | --- | --- | --- | --- |
| O=C(NCc1ccc(-c2noc(C(F)(F)F)n2)c(F)c1F)C(=O)c1ccco1 [Compound 1.81, N-[[2,3-difluoro-4-[5-(trifluoromethyl)-1,2,4-oxadiazol-3-yl]phenyl]methyl]-2-(2-furyl)-2-oxo-acetamide] | ≥ 80 | ≥ 80 |  |  |
| Cc1cc(-c2noc(C(F)(F)F)n2)ccc1CNC(=O)C(=O)c1ccccc1 [Compound 1.65, N-[[2-methyl-4-[5-(trifluoromethyl)-1,2,4-oxadiazol-3-yl]phenyl]methyl]-2-oxo-2-phenyl-acetamide] |  | ≥ 80 | ≥ 80 |  |
| NC(=O)C(=O)NCc1ccc(-c2noc(C(F)(F)F)n2)c(F)c1F [Compound 4.84, N′-[[2,3-difluoro-4-[5-(trifluoromethyl)-1,2,4-oxadiazol-3-yl]phenyl]methyl] oxamide] | ≥ 80 | ≥ 80 |  |  |
| O=C(NCC1COCCO1)C(=O)Nc1ccc(-c2noc(C(F)(F)F)n2)cc1 (centres unmarked) [Compound 4.19, N-(1,4-dioxan-2-ylmethyl)-N′-[4-[5-(trifluoromethyl)-1,2,4-oxadiazol-3-yl]phenyl]oxamide] |  | ≥ 80 | ≥ 80 |  |
| CCCCON(Cc1ccc(-c2noc(C(F)(F)F)n2)cc1)C(=O)C(=O)CC [Compound 1.30, N-butoxy-2-oxo-N-[[4-[5-(trifluoromethyl)-1,2,4-oxadiazol-3-yl]phenyl]methyl]butanamide] | ≥ 80 | ≥ 80 |  |  |
| NC(=O)C(=O)NCCc1ccc(-c2noc(C(F)(F)F)n2)cc1 [Compound 4.85, N′-[2-[4-[5-(trifluoromethyl)-1,2,4-oxadiazol-3-yl]phenyl]ethyl] oxamide] | ≥ 80 | ≥ 80 |  |  |
| CCCC(=O)C(=O)N(Cc1ccc(-c2noc(C(F)(F)F)n2)cc1)CC1CC1 [Compound 1.6, N-(cyclopropyl-methyl)-2-oxo-N-[[4-[5-(trifluoromethyl)-1,2,4-oxadiazol-3-yl]phenyl]methyl]pentanamide] | ≥ 80 | ≥ 80 |  |  |
| CCC(=O)C(=O)N(C)c1ccc(-c2noc(C(F)(F)F)n2)cc1 [Compound 1.34, N-methyl-2-oxo-[4-[5-(trifluoromethyl)-1,2,4-oxadiazol-3-yl]phenyl]butanamide] |  | ≥ 80 |  |  |
| Cc1cc(-c2noc(C(F)(F)F)n2)ccc1CNC(=O)C(=O)C(C)(C)C [Compound 1.67, 3,3-dimethyl-N-[[2-methyl-4-[5-(trifluoromethyl)-1,2,4-oxadiazol-3-yl]phenyl]methyl]-2-oxo-butanamide] | ≥ 80 | ≥ 80 |  |  |
| CON(Cc1ccc(-c2noc(C(F)(F)F)n2)cc1)C(=O)C(=O)NC1CCC1 [Compound 4.72, N-cyclobutyl-N′-methoxy-N′-[[4-[5-(trifluoromethyl)-1,2,4-oxadiazol-3-yl]phenyl]methyl] oxamide] | ≥ 80 |  | ≥ 80 | ≥ 80 |
| CCCNC(=O)C(=O)N(Cc1ccc(-c2noc(C(F)(F)F)n2)cc1)OC [Compound 4.77, N′-methoxy-N-propyl-N′-[[4-[5-(trifluoromethyl)-1,2,4-oxadiazol-3-yl]phenyl]methyl] oxamide] | ≥ 80 |  | ≥ 80 | ≥ 80 |
| CCN(Cc1ccc(-c2noc(C(F)(F)F)n2)cc1)C(=O)C(=O)NOC [Compound 4.107, N'-ethyl-N-methoxy-N′-N′-[[4-[5-(trifluoromethyl)-1,2,4-oxadiazol-3-yl]phenyl]methyl] oxamide] | ≥ 80 |  | ≥ 80 | ≥ 80 |
| CONC(=O)C(=O)N(Cc1ccc(-c2noc(C(F)(F)F)n2)cc1)OC [Compound 4.78, N,N′-dimethoxy-N′-[[4-[5-(trifluoromethyl)-1,2,4-oxadiazol-3-yl]phenyl]methyl] oxamide] | ≥ 80 |  | ≥ 80 | ≥ 80 |
